Measurements taken from patent US9914697B2, “Methods for making polymorphs of bromfenac sodium and bromfenac sodium formulations” (Johnson Matthey Public Limited Company, priority 2009, dated 2018).

Assays:
Type in all cases: physicochemical
[1] = Stability of Form I polymorph on exposure to water vapour (XRPD and water content analyses); conditions: moisturized alongside a dish of water in a bag sealed under nitrogen for 19 h
Protocol: Sodium salt of 2-amino-3-(4-bromobenzoyl)phenylacetic acid, Form I polymorph (0.6 g) was placed in a drying dish alongside a dish containing water (20 g) in a plastic bag. The bag was sealed under nitrogen and the product allowed to moisturize for 19 h.

[2] = Stability of polymorph towards atmospheric moisture (hydration and conversion); conditions: must be protected from atmospheric moisture, hydrates to Form I
Excerpt: If so desired, the above-described procedures for producing bromfenac sodium Form I may be adapted and modified so as to provide a product that is a mixture of bromfenac sodium Form I and bromfenac sodium Form II. Bromfenac sodium Form II is a polymorph that is believed to be a monohydrate of bromfenac sodium, i.e., containing one water molecule per molecule of bromfenac sodium, and characterized by a powder x-ray diffraction pattern having main peaks expressed as 2-theta at about 11.3, 14.4, 16.5, 17.3, 18.5, 19.4, 20.7, 21.0, 22.7, 29.0, 31.8, 34.1 and 36.1 degrees. Drying the crystalline product initially obtained in the crystallization process described above under a vacuum results in the removal of some water of hydration from the sesquihydrate and the formation of the Form II polymorph, as evidenced by XRPD. The vacuum drying conditions may be adjusted so as to vary the Form II polymorph content of the product obtained. For example, higher drying temperatures, lower pressures, and increased drying times will generally all increase the amount of bromfenac sodium Form II present. It is believed that such parameters may be selected so as to provide bromfenac sodium Form II in substantially pure form (i.e., substantially free of any bromfenac sodium Form I or any other polymorph). […]

[3] = Water adsorption under wet nitrogen hydration conditions in vacuum oven; conditions: 30-35° C. vacuum oven (5 mm Hg), 17 hours
[4] = Rate of dissolution in water; conditions: compared with bromfenac sodium Form I or other hydrated forms

Nc1c(CC(=O)[O-])cccc1C(=O)c1ccc(Br)cc1.Nc1c(CC(=O)[O-])cccc1C(=O)c1ccc(Br)cc1.O.O.O.[Na+].[Na+] [Bromfenac sodium Form I, sodium salt of 2-amino-3-(4-bromobenzoyl)phenylacetic acid, sesquihydrate]
change in polymorphic form (XRPD and water content analyses) [1]: no change in polymorphic form

Nc1c(CC(=O)[O-])cccc1C(=O)c1ccc(Br)cc1.[Na+] [Bromfenac sodium Form II, sodium salt of 2-amino-3-(4-bromobenzoyl)phenylacetic acid]
stability of the polymorph [2]: not stable

Nc1c(CC(=O)[O-])cccc1C(=O)c1ccc(Br)cc1.[Na+] [Bromfenac sodium Form III, sodium salt of 2-amino-3-(4-bromobenzoyl)phenylacetic acid]
water content of sample after wet nitrogen hydration conditions [3]: did not change | rate of dissolution in water [4]: significantly lower
